Reference: US20240002424A1, “HEXOSAMINE COMPOUNDS AND METHODS THEREOF” (National Institute of Immunology, priority 2021, published 2024)

Experiments:
Type in all cases: cell-based, human
[1] = system: Jurkat cells; assay: NeuAz expression on the cell surface by SPAAC with DBCO-Cy5 and flow cytometry, competition with Ac4ManNAz (1c); details: for reduction in NeuAz expression upon co-incubation: 0-50 μM with 1c 50 μM, simultaneous addition; for reduction in NeuAz expression upon co-incubation / NeuAz expression upon co-incubation with Ac4ManNAz: 24 h; for NeuAz expression upon co-incubation with Ac4ManNAz: Ac4ManNAz (Z) 50 μM plus analogue at 10, 25, 50 μM
Experimental: FIG. 5 illustrates competitive processing by compounds of the present invention (ManNAc compounds). ManNAc compounds competitively reduce the expression of N-azidoacetyl-D-neuraminic acid (NeuAz)-carrying sialoglycans through the metabolic processing of Ac4ManNAz. Jurkat (human T-lymphoma) cells were incubated with Ac4ManNAz (Z) (50 μM) alone, co-incubated with GL-2, GL-3, MA-2, or MA-3 (at various concentrations such as 10,
25, and 50 μM) for 24 h. Expression of N-azidoacetyl-D-neuraminic acid (NeuAz) on the cell surface sialoglycans was estimated using strain-promoted azide-alkyne cycloaddition (SPAAC) with DBCO-Cy5 and analyzed by flow cytometry. […] GL-2 was used for comparative study and the structure of this compound is as below.
Jurkat cells (3.0×10^5 cells/mL; 2.5 mL per well in 6-well plates) in complete medium were treated with either vehicle (D) or Compound 1c; Untreated Jurkat cells, without addition of vehicle, were also included as additional controls. Cells were harvested at 48 h, washed thrice with PBS (3×0.5 mL) (3000×g, 2.0 min). Prior to the last wash cells were counted and were aliquoted to 1.0×10^6 cells per sample in 1.5 mL microcentrifuge tubes and centrifuged. The cells were gently resuspended in PBS ([…]) and treated with DBCO-Cy5 ([…]) and incubated at 37° C. (on a Torrey-Pines dry heating bath with mild shaking). After one hour, the cells were washed using FSB (0.5 mL, 3000×g, 2.0 min, room temperature), resuspended in PBS (250 mL), treated with PI (2.5 mg/mL), and analyzed using BD FACSCanto and FACSDiva Version 6.1.3. The cells were gated for PI-negative population for 10,000 events. Two replicate samples were prepared for each conditions and each sample was counted twice.
Estimation of NeuAz expression by 1c in the presence of peracetylated ManNAc analogues: Jurkat cells (3.0×10^5 cells/mL in 3.0 mL per well in 6-well plates) were incubated with (i) D, (ii) 1a, 1b, 1c, or 1d alone (50 mM) or (iii) 1a, 1b, or 1d (50 mM) in combination with 1c (50 mM). After 24 h, cells were harvested, washed using FSB, aliquoted to 5.0×10^5 cells per sample, and processed as mentioned above for estimation of NeuAz expression using DBCO-Cy5 ([…]). Experiments using HL-60 cells were performed using the same procedure. […]
Effect of GlcNAc and ManNAc analogues on NeuAz expression: Jurkat cells were treated with 1a, 1b, 2a, or 2b (10, 25, and 50 mM for each analogue) in combination with 1c (50 mM). Cells treated with 1c (50 mM) alone were considered as a reference. After 24 h, cells were harvested, processed, labelled with DBCO-Cy5 ([…]), and analysed by flow cytometry as mentioned above.
In order to evaluate the metabolism, Jurkat (human T-lymphoma) cells were selected and incubated with ManNAc analogues either alone (50 μM) or in combination with 1c (50 μM) for 48 h. Expression of NeuAz on cell surface was estimated by flow cytometry through the copper-free bio-orthogonal strain-promoted azide-alkyne cycloaddition (SPAAC) reaction using dibenzocyclooctyne-Cy5 (DBCO-Cy5). The conditions for click reaction were optimized for various concentrations of DBCO-Cy5 and time course of SPAAC reaction in Jurkat cells. Based on the optimization results, incubation time of 30 min at 37° C. for 5.0×10^5 cells (pre-incubated with 1c for 48 h) with 20 μM of DBCO-Cy5 in 100 μL total volume for experiments with ManNAc analogues was chosen. […] In order to test the dose-dependency of this inhibitory effect on NeuAz expression and to establish competitive metabolic processing, Jurkat cells were first treated with either 1a or 1b (0-50 μM) followed by addition of 1c (50 μM) at 12 h and estimation of NeuAz at 48 h. As expected, the suppression of NeuAz expression was substantially higher when added with a 12 h delay compared to simultaneous addition, in a dose-dependent manner. […] By contrast simultaneous addition resulted only in a 10% reduction of NeuAz for both 1a and 1b (FIG. 6C and FIG. 7B).

[2] = system: HL-60 cells; assay: Total and glycoside bound sialic acids by periodate-resorcinol assay; details: 100 μM, 48 h
Experimental: Total sialic acids were measured following reported procedures. HL-60 cells (3.0×10^5 cells/mL in 10 mL complete medium in 10 cm diameter Petri dishes) were incubated with D, 1a, 1b, 1c, 1d, 1e, 1f, 1g, 2a, or 2b (100 mM each), along with untreated (U) controls. After 48 h, cells were harvested, washed with PBS (3×5.0 mL; 3000×g, for 2.0 min), aliquoted to 2×10^6 cells per sample and resuspended in PBS (150 mL) in 1.5 mL microcentrifuge tubes. Cells were lyzed by three freeze-thaw cycles and the total lysates were subjected to periodate-resorcinol assay. Briefly, lysates (150 mL) were treated with 0.4 M aqueous periodic acid (6.67 mM) or (2.5 mL) and incubated either on ice for 15 min (for measurement of total sialic acids) or at 37° C. for 1.0 h (for measurement of glycoconjugate bound sialic acids). About 10 mL of reagent cocktail was prepared using 6% w/v of aqueous resorcinol (1.0 mL), 2.5 mM copper (II) sulfate (1.0 mL), 44% of concentrated hydrochloric acid (4.4 mL), and water (3.6 mL). The mixture was then treated with the reagent cocktail (250 mL per sample), boiled at 100° C. for 10 min, rapidly quenched in an ice-bath and treated with tert-butanol (250 mL). The contents were centrifuged and the supernatants were aliquoted (200 mL) into 96-well plates and the absorbance at 630 nm was measured. At least three replicates were prepared for each condition.

[3] = system: HL-60 cells; assay: Cell density as a measure of proliferation/cytotoxicity; details: 100 μM, cell density measured at 24, 48, and 72 h
[4] = system: HL-60 cells; assay: Cell surface sialyl-Lewis-X (CD15s) by anti-CD15s (CSLEX1) flow cytometry; details: 50 μM, 24 h
Experimental: Effect of ManNAc analogues on the expression of sialyl-Lewis-X and Lewis-X: HL-60 cells (3.0×10^5 cells/mL in 2.0 mL complete medium in 6 well plate) were treated with D (vehicle), 1a, 1b, 1c, 1d, 1e, 1f, or 1g (50 PM), along with untreated (U) control. After 24 h, cells were harvested and washed with PBS (3×0.5 mL, 3000×g, 3.0 min at room temperature). Prior to last wash, cells were counted using Z2 coulter counter and aliquoted at 2.5×10^5 cells per sample and stained with either mouse anti-human CD15s (CSLEX1) (1.25 μg/mL) or mouse anti-human CD15 (HI98) (2.5 μg/mL) in HEPES/CaCl2) buffer (30 mM HEPES, 110 mM NaCl, 10 mM KCl, 2 mM MgCl2, 10 mM glucose, 1.5 mM CaCl2) containing 0.1% bovine serum albumin, pH 7.3) (total volume of 100 μL) for 30 min at 4° C. Cells were washed with HEPES/CaCl2 buffer (2×0.5 mL) and stained with AlexaFluor488-conjugated anti-mouse IgM (2.5 μg/mL) (for both CD15s and CD15) in 100 μL HEPES/CaCl2 for 30 min at 4° C. Cells were washed with HEPES/CaCl2 buffer (2×0.5 mL), resuspended in PBS (0.2 mL), treated with PI (2.5 μg/ml) and analysed by BD FACSVerse. Samples treated with (i) isotype antibodies followed by secondary antibody and (ii) secondary antibody alone were prepared as controls. Single Cells were gated for PI-negative population for 10,000 events and analysed by flow cytometry. Two replicate samples were prepared for each condition and each sample was counted twice. Three independent experiments were performed. Data was analysed using FlowJo V10. For plotting graph and calculation of significant probability ‘p’ values, two-way ANOVA with Dunnett's multiple comparison tests was employed in GraphPad Prism 8.
Time course of CD15s expression: HL-60 cells (3.0×10^5 cells/mL in 2.5 mL complete medium in 6-well plates) were incubated with D, 1a, 1b, or 1d (50 mM). At each time point, from day 1 to day 6, the cells were harvested from the entire contents of the well, washed, and aliquoted to 5.0×10^5 cells per sample, and immuno-stained using anti-CD15s (CSLEX1) antibody as mentioned above. On day 3, 4, and 5 complete media (1.0 mL) was added to each remaining well in order to compensate for media exhaustion. No contents were removed from the well during the period.

[5] = system: HL-60 cells; assay: NeuAz expression by SPAAC with DBCO-Cy5 and flow cytometry, competition with 1c; details: 50 μM with 1c 50 μM, 24 h
Experimental: Estimation of NeuAz expression by 1c in the presence of peracetylated ManNAc analogues: Jurkat cells (3.0×10^5 cells/mL in 3.0 mL per well in 6-well plates) were incubated with (i) D, (ii) 1a, 1b, 1c, or 1d alone (50 mM) or (iii) 1a, 1b, or 1d (50 mM) in combination with 1c (50 mM). After 24 h, cells were harvested, washed using FSB, aliquoted to 5.0×10^5 cells per sample, and processed as mentioned above for estimation of NeuAz expression using DBCO-Cy5 ([…]). Experiments using HL-60 cells were performed using the same procedure.
Having confirmed metabolic acceptability in Jurkat cells, the compounds were tested on HL-60 (human acute myeloid leukemia) cells which are a reliable model for neutrophil adhesion. The effect on competitive suppression of NeuAz expression was studied using 1c as a reporter. HL-60 cells were treated with 1c either alone (50 μM) or in combination with ManNAc analogues (50 μM), including the straight chain derivatives, for 24 h followed by DBCO-Cy5 ligation. […] The decreasing ability of linear alkyl moieties (1d-1g), as a function of chain length, for suppression of NeuAz expression is in contrast to the cycloalkyl moieties. […] Similarly, 1a induced a reduction of 40% compared to only a 15% reduction by 1f.

Row | Structure (SMILES) | glycoside bound sialic acid levels (in words) [2] | decrease in cell density [3] [%] | increase in binding of CSLEX1 antibody (sLeX) compared to controls [4] [fold] | reduction in NeuAz expression upon co-incubation [1] | ratio of total sialic acids to glycoside bound sialic acids vs untreated cells [2] | total sialic acid levels (in words) [2] | NeuAz expression upon co-incubation with Ac4ManNAz [1] | other results
1 | CC(=O)OC[C@H]1O[C@H](OC(C)=O)[C@@H](NC(=O)CN=[N+]=[N-])[C@@H](OC(C)=O)[C@@H]1OC(C)=O [Compound 1c, 1,3,4,6-tetra-O-acetyl-2-azidoacetylamino-2-deoxy-α-D-mannopyranose] | comparable to untreated cells | ~10 | 1.4 | – | – | – | – | NeuAz expression / DBCO-Cy5 signal, compound alone ([1]; 50 μM alone, 48 h): robust expression of NeuAz
2 | CC(=O)OC[C@H]1OC(OC(C)=O)[C@H](NC(=O)C2CCC2)[C@@H](OC(C)=O)[C@@H]1OC(C)=O (stereo partly drawn) [Compound 2b, (3R,4R,5S,6R)-6-(acetoxymethyl)-3-(cyclobutanecarboxamido)tetrahydro-2H-pyran-2,4,5-triyl triacetate] | comparable to untreated cells | ~10 | – | negligible reduction | lower ratios | comparable to untreated cells | – | –
3 | CC(=O)OC[C@H]1O[C@@H](OC(C)=O)[C@H](NC(=O)C2CC2)[C@@H](OC(C)=O)[C@@H]1OC(C)=O [Compound 2a, 1,3,4,6-tetra-O-acetyl-2-cyclopropanoylamino-2-deoxy-β-D-glucopyranose] | comparable to untreated cells | ~10 | – | negligible reduction | lower ratios | comparable to untreated cells | not | –
4 | CCC(=O)N[C@@H]1[C@@H](OC(C)=O)O[C@H](COC(C)=O)[C@@H](OC(C)=O)[C@@H]1OC(C)=O [Compound 1e, 1,3,4,6-tetra-O-acetyl-2-(1-propanoyl)amino-2-deoxy-α-D-mannopyranose] | – | – | ~2.5 | – | higher ratios of free sialic acid | – | – | NeuAz expression with respect to 1c alone (100%) [5]: 65%; suppression of NeuAz expression (in words) [5]: significant suppression; increase in glycoside bound sialic acid levels [2]: ~10%; increase in total sialic acid levels vs untreated cells [2]: 2.3 fold
5 | CC(=O)OC[C@H]1OC(OC(C)=O)[C@H](NC(=O)C2CCC2)[C@@H](OC(C)=O)[C@@H]1OC(C)=O (mixture of isomers) [Compound 2b, (3R,4R,5S,6R)-6-(acetoxymethyl)-3-(cyclobutanecarboxamido)tetrahydro-2H-pyran-2,4,5-triyl triacetate] | – | – | – | – | – | – | not | –
6 | CC(=O)OC[C@H]1OC(OC(C)=O)[C@@H](NC(=O)C2CCC2)[C@@H](OC(C)=O)[C@@H]1OC(C)=O (mixture of isomers) [Compound 1b, (3S,4R,5S,6R)-6-(acetoxymethyl)-3-(cyclobutanecarboxamido)tetrahydro-2H-pyran-2,4,5-triyl triacetate] | – | – | – | – | – | – | reduced competitively in a dose-dependent manner | –
